The values that follow come from ChEMBL document CHEMBL5120909, “Reshaping an Acyclic Nucleoside Phosphonate into a Selective Anti-hepatitis B Virus Compound” (J Med Chem, 2022).

Where only a bound is given, the exact number is not on record here.

One data set deals with Human betaherpesvirus 5. Put plainly: Antiviral activity against HCMV AD-169 infected in HFF cells assessed as reduction in viral replication measured after 14 days. It is filed as functional, organism-based. As to conditions: Human betaherpesvirus 5, AD-169, HFF, 336 h.
A short description of data set [1]: Cytotoxicity against human HFF cells infected with HCMV AD-169 virus assessed as reduction in cell viability by cell titer-glo assay. Format: toxicity, cell-based. Background: ATP-based viability assays read luminescence as a measure of living cells.
Data set [2] can be described thus: Selectivity index, ratio of CC50 for cytotoxicity against human HFF cells infected with HCMV AD-169 virus assessed as reduction in cell viability by cell titer-glo assay to EC50 for antiviral activity against HCMV AD-169 infected in HFF cells assessed as inhibition of virus-induced cytopathic effect measured after 14 days. It is filed as toxicity, cell-based. As to conditions: read-out: Ratio CC50/EC50.

The next data set concerns Human alphaherpesvirus 3. Put plainly: Antiviral activity against VZV Ellen infected in HFF cells assessed as reduction in viral replication measured after 14 days. Format: functional, organism-based. As to conditions: Human alphaherpesvirus 3, Ellen, 336 h.
Data set [3] is described as follows: Cytotoxicity against human HFF cells infected with VZV Ellen virus assessed as reduction in cell viability by cell titer-glo assay. Format: toxicity, cell-based.
The nature of data set [4]: Selectivity index, ratio of CC50 for cytotoxicity against human HFF cells infected with VZV Ellen virus assessed as reduction in cell viability by cell titer-glo assay to EC50 for antiviral activity against VZV Ellen infected in HFF cells assessed as inhibition of virus-induced cytopathic effect measured after 14 days. The settings on record: read-out: Ratio CC50/EC50. Format: toxicity, cell-based.

The test system of data set [5] is Human immunodeficiency virus 1. Kind of data set: Anti-HIV activity against wild type HIV-1 IIIB infected in human MT4 cells assessed as inhibition of HIV-induced cytopathic effect measured after 5 days by MTT assay. It is filed as functional, organism-based. As to conditions: Human immunodeficiency virus 1, IIIB, MT4, 120 h. For orientation: Damage to the host cells serves as the signal in cytopathic effect assays.

Data set [6] has as its system Human immunodeficiency virus 2. Kind of data set: Anti-HIV activity against wild type HIV-2 ROD infected in human MT4 cells assessed as inhibition of HIV-induced cytopathic effect measured after 5 days by MTT assay. It is filed as functional, organism-based. The settings on record: Human immunodeficiency virus 2, ROD, MT4, 120 h.
A short description of data set [7]: Cytotoxicity against human MT4 cells assessed as reduction in cell viability by MTT assay. Format: toxicity, cell-based. (In general: Formazan colour is commonly taken as a measure of viable cells.)
Data set [8] can be described thus: Selectivity index, ratio of CC50 for cytotoxicity against human MT4 cells assessed as reduction in cell viability by MTT assay to EC50 for anti-HIV activity against wild type HIV-1 IIIB infected in human MT4 cells assessed as inhibition of HIV-induced cytopathic effect measured after 5 days by MTT assay. It is filed as toxicity, cell-based. The settings on record: read-out: Ratio CC50/EC50.

A short description of data set [9]: Selectivity index, ratio of CC50 for cytotoxicity against human MT4 cells assessed as reduction in cell viability by MTT assay to EC50 for anti-HIV activity against wild type HIV-2 ROD infected in human MT4 cells assessed as inhibition of HIV-induced cytopathic effect measured after 5 days by MTT assay. It is filed as toxicity, cell-based. The settings on record: read-out: Ratio CC50/EC50.

The test system of data set [10] is Hepatitis B virus. Kind of data set: Antiviral activity against wild type HBV infected in human HepG2 2.2.15 cells assessed as reduction in viral replication pre incubated for 3 days followed by replacement with fresh compounds for another 3 days prior to pronase treatment by RT-qPCR analysis. It is filed as functional, organism-based, HepG2.2.15. As to conditions: for EC50: HepG2.2.15; for EC90: HepG2.2.15, 144 h, time 6 day.

For data set [11], the system named is HepG2 2.2.15. Put plainly: Cytotoxicity against human HepG2.2.15 cells assessed as reduction in cell viability by neutral red uptake assay. Format: functional.
In data set [12] the test system is HepG2 2.2.15. Kind of data set: Cytotoxicity against human HepG2.2.15 cells assessed as reduction in cell viability. Format: functional.
The test system of data set [13] is Hepatitis B virus. Put plainly: Antiviral activity against wild type HBV infected in human HepG2 2.2.15 cells assessed as reduction in viral replication by DNA HYB (Vision)/neutral red (Tox) assay. As to conditions: HepG2.2.15. It is filed as functional, organism-based.
The subject of data set [14] is Hepatitis B virus. Put plainly: Antiviral activity against wild type HBV infected in human HepG2 2.2.15 cells assessed as reduction in viral replication by DNA HYB (RI)/neutral red (Tox) assay. It is filed as functional, organism-based. The settings on record: HepG2.2.15.
The nature of data set [15]: Selectivity index, ratio of CC50 cytotoxicity against human HepG2.2.15 cells assessed as reduction in cell viability to EC50 for antiviral activity against wild type HBV infected in human HepG2 2.2.15 cells assessed as reduction in viral replication by DNA HYB (Vision)/neutral red (Tox) assay. As to conditions: read-out: Selectivity Index. Format: toxicity, cell-based.

A short description of data set [16]: Selectivity index, ratio of CC50 cytotoxicity against human HepG2.2.15 cells assessed as reduction in cell viability to EC50 for antiviral activity against wild type HBV infected in human HepG2 2.2.15 cells assessed as reduction in viral replication by DNA HYB (RI)/neutral red (Tox) assay. Format: toxicity, cell-based. As to conditions: read-out: Selectivity Index.

For data set [17], the system named is HepG2 2.2.15. Kind of data set: Cytotoxicity against human HepG2.2.15 cells assessed as reduction in cell viability incubated for 1 to 4 hrs by MTS uptake assay. The settings on record: time 1-4 hrs. Format: functional.

Turning to `C#CC(CO)(Cn1cnc2c(=O)[nH]c(N)nc21)OCP(=O)(O)O` (centres undefined), the EC50 (commonly the concentration giving half of the maximal effect) turned out to be 14.4 µM in the data set with Human betaherpesvirus 5; 116 µM in the data set with Human alphaherpesvirus 3; 3.73 µM in data set [5]; 1.28 µM in [6]; 0.37 µM in the data set with Hepatitis B virus [10]; 0.31 µM in the data set with Hepatitis B virus [13]. Besides, in the data set on Hepatitis B virus [14], the concentration giving a half-maximal response (EC50) amounted to 0.54 µM. Besides, the EC90 (in general, the concentration needed for an effect of 90%) with Human betaherpesvirus 5 (time 14 day) is above 150 µM; in the data set on Human alphaherpesvirus 3 (time 14 day), above 150 µM; with Hepatitis B virus [10] it was 0.83 µM; with Hepatitis B virus [13] it was 0.8 µM; with Hepatitis B virus [14], 1.8 µM. Further, the CC50 (as a rule, the concentration giving 50% cytotoxicity) in [1] is above 150 µM; in [3] it was above 150 µM; in data set [7] it was above 364 µM; in the data set with HepG2 2.2.15 [11] it was above 100 µM; in the data set on HepG2 2.2.15 [12], above 100 µM. For the same compound, the selectivity ratio at 336 h in data set [2] was above 10; in data set [4], above 1. The selectivity ratio at 120 h in data set [8] was above 97; in data set [9], above 287. For the same compound, the selectivity ratio in data set [15] was above 322; in data set [16], above 185.
Take `Nc1ccn([C@@H]2CS[C@H](CO)O2)c(=O)n1` [LAMIVUDINE]: the EC50 in data set [5] stood at 2.53 µM; in data set [6], 9.9 µM; with Hepatitis B virus [10] it was 0.04 µM; in the data set on Hepatitis B virus [13], 0.04 µM; with Hepatitis B virus [14] it was 0.13 µM. For the same compound, the 50% cytotoxic concentration (CC50) was above 87.2 µM in data set [7], above 2 µM in the data set with HepG2 2.2.15 [17], 2120 µM in the data set on HepG2 2.2.15 [11] and 2120 µM in the data set with HepG2 2.2.15 [12]. The selectivity ratio at 120 h was above 24 in data set [8] and above 9 in data set [9]. Moreover, the concentration for an effect of 90% (EC90) was determined as 0.13 µM with Hepatitis B virus [10], 0.12 µM with Hepatitis B virus [13] and 0.35 µM in the data set with Hepatitis B virus [14]. The selectivity ratio in data set [15] came to 57400; in data set [16], 16200.
